Experimental data as given in US12629382B2, “Therapy” (Vestlandets Innovasjonsselskap AS, priority 2019, dated 2026).

Key:
Format in all cases: cell-based
U87 = test: Intracellular GSH, GSH-Glo assay, U87 cells; settings: Homo sapiens, U-87 MG, 48 h, normalized to untreated control; for activity at 250 µM: 250 μM compound, read-out: Intracellular GSH level U87 250 μM; for activity at 500 µM: 500 μM compound, read-out: Intracellular GSH level U87 500 μM
Protocol: (§1) The cancer cell lines A172, A375, U87 and MCF7 were purchased from American Type Culture Collection (ATCC; Manassas, Va., USA). Cells were cultured in Dulbecco's Modified Eagle's Medium (DMEM) supplemented with 10% fetal bovine serum, 2% v/v L-glutamine, 3.2% v/v non-essential amino acids, antibiotics 2% v/v (penicillin-streptomycin), and 0.02% v/v Plasmocin at 37° C. and 5% CO2.
(§2) xCT expression of cancer cell lines was evaluated by western blotting from protein samples of cell lysates as described in Sleire et al., Oncogene 34: 5951-5959, 2015. Protein concentrations were determined by BCA assay (Thermo Fisher Scientific, USA) followed by SDS PAGE and immunoblotting using rabbit anti-xCT (Thermo Fisher Scientific) and rabbit anti-GAPDH (Abcam, Cambridge, UK) as a loading control. The compounds were dissolved in dimethylsulfoxide (DMSO) (Sigma Aldrich, Germany) and stock concentrations of 100 mM were stored at −20° C. in aliquots. Final concentrations were made in growth medium before adding to the cell monolayers.
(§3) The compounds were evaluated based on the measurement of intracellular Glutathione (GSH) which was performed by the GSH-Glo assay (Promega, Madison, WI, USA, cat #V6912) according to the manufacturer's recommended procedures. 5000 cells per well were seeded in a flat bottomed 96-well plate. After attachment to the well surface, cells were exposed to 250 μM and 500 μM of each compound for 48 h. After that, GSH-Glo reagent was added followed by short incubation and addition of luciferin detection reagent. Bioluminescence was measured using a luminometer (Victor 3 1420 multi-label counter, Perkins Elmer, Waltham, MA, USA). IC50 doses for the compounds SAS, DC10 and DC14 were determined in A172 glioma cells, using the GraphPad Prism v6 software (GraphPad Software, Inc. CA, USA). All measurements were normalized to the untreated control and were performed three times.

A375 = test: Intracellular GSH, GSH-Glo assay, A375 cells; settings: Homo sapiens, 48 h, normalized to untreated control; for activity at 250 µM: A-375, 250 μM compound, read-out: Intracellular GSH level A375 250 μM; for activity at 500 µM: A-375, 500 μM compound, read-out: Intracellular GSH level A375 500 μM
Protocol: as §1, §2, §3

MCF7 = test: Intracellular GSH, GSH-Glo assay, MCF7 cells; settings: Homo sapiens, 48 h, normalized to untreated control; for activity at 250 µM: 250 μM compound, read-out: Intracellular GSH level MCF7 250 μM; for activity at 500 µM: 500 μM compound, read-out: Intracellular GSH level MCF7 500 μM
Protocol: as §1, §2, §3

A172 glioma cells = test: Intracellular GSH, GSH-Glo assay, A172 cells; settings: Homo sapiens, 48 h, normalized to untreated control; for activity at 250 µM: A 172, 250 μM compound, read-out: Intracellular GSH level A172 250 μM; for activity at 500 µM: A 172, 500 μM compound, read-out: Intracellular GSH level A172 500 μM
Protocol: as §1, §2, §3

| SMILES | activity at 250 µM (U87) [%] | activity at 500 µM (U87) [%] | activity at 250 µM (A375) [%] | activity at 500 µM (A375) [%] | activity at 250 µM (MCF7) [%] | activity at 500 µM (MCF7) [%] | activity at 250 µM (A172 glioma cells) [%] | activity at 500 µM (A172 glioma cells) [%] |
| --- | --- | --- | --- | --- | --- | --- | --- | --- |
| O=C(O)c1cc(/C=C/c2cccc(-c3ccccc3)c2)ccc1O [DC18, (E)-5-(2-([1,1′-biphenyl]-3-yl)vinyl)-2-hydroxybenzoic acid] | 66.5 | 4.6 | 53.7 | 3.4 | 54.6 | 4.8 | 74 | 3.7 |
| O=C(O)c1cc(-c2ccc3ccccc3c2)ccc1O [DC11, 2-hydroxy-5-(naphthalen-2-yl)benzoic acid] | 62.6 | 22.7 | 36.1 | 11.8 | 23.7 | 8.8 | 28.4 | 10.2 |
| O=C(O)c1cc(/C=C/c2ccccc2-c2ccccc2)ccc1O [DC19, (E)-5-(2-([1,1′-biphenyl]-2-yl)vinyl)-2-hydroxybenzoic acid] | 64.6 | 5 | 47.8 | 3.7 | 51 | 4.3 | 58.7 | 3.3 |
| CC1(C)c2ccccc2-c2ccc(/C=C/c3ccc(O)c(C(=O)O)c3)cc21 [DC21, (E)-5-(2-(9,9-dimethyl-9H-fluoren-2-yl)vinyl)-2-hydroxybenzoic acid] | 5 | 3.8 | 4.2 | 3.3 | 5.7 | 4.2 | 4.9 | 2.8 |
| O=C(O)c1cc(/C=C/c2ccc(S(=O)(=O)Nc3ccccc3)cc2)ccc1O [DC14, (E)-2-hydroxy-5-(4-(N-phenylsulfamoyl)styryl)benzoic acid] | 18 | 1.9 | 4.5 | 2 | 25.9 | 1.8 | 23.1 | 2.4 |
| COc1ccc(/C=C\c2ccccc2)cc1C(=O)O [DC03, (Z)-2-methoxy-5-styrylbenzoic acid] | 87.9 | 88.4 | 68.6 | 47.6 | 94.9 | 49.4 | 77.5 | 68.2 |
| Oc1ccc(/C=C/c2ccccc2)cc1-c1nnn[nH]1 [DC15, (E)-4-styryl-2-(1H-tetrazol-5-yl)phenol] | 104 | 50.4 | 53.3 | 46.4 | 75.8 | 32.6 | 55.1 | 9.7 |
| O=C(O)c1cc(/C=C/c2ccc(F)cc2)ccc1O [DC07, (E)-5-(4-fluorostyryl)-2-hydroxybenzoic acid] | 50.4 | 11.7 | 23.8 | 7.8 | 22.1 | 6.9 | 81.6 | 16.8 |
| CC(=O)Nc1ccc(/C=C/c2ccccc2)cc1C(=O)O [DC16, (E)-2-acetamido-5-styrylbenzoic acid] | 73.5 | 63.2 | 34.5 | 26.4 | 92.4 | 83.7 | 67.3 | 51.7 |
| COc1ccc(C#Cc2ccccc2)cc1C(=O)O [DC04, 2-methoxy-5-(phenylethynyl)benzoic acid] | 80.6 | 88.6 | 63.4 | 42.4 | 91.4 | 68 | 86.9 | 77.6 |
| O=C(O)c1cc(/C=C/c2ccccc2)ccc1O [DC02, (E)-2-hydroxy-5-styrylbenzoic acid] | 82.2 | 66.9 | 50.4 | 32 | 47.4 | 15.9 | 90.9 | 41 |
| CS(=O)(=O)c1ccc(/C=C/c2ccc(O)c(C(=O)O)c2)cc1 [DC13, (E)-2-hydroxy-5-(4-(methylsulfonyl)styryl)benzoic acid] | 105 | 103 | 74.3 | 59.7 | 88.3 | 76.6 | 94.1 | 81.6 |
| Cc1cc(O)c(C(=O)O)c(C)c1-c1ccc2ccccc2c1 [DC20, 6-hydroxy-2,4-dimethyl-3-(naphthalen-2-yl)benzoic acid] | 61.1 | 6.1 | 63.1 | 4.6 | 40.5 | 9.7 | 82.1 | 11.9 |
| O=C(O)c1cc(-c2ccc(-c3ccccc3)cc2)ccc1O [DC17, 4-hydroxy-[1,1′:4′,1″-terphenyl]-3-carboxylic acid] | 66.2 | 20.2 | 56.6 | 4.6 | 51.7 | 17 | 98.4 | 28.7 |
| Nc1ccc(/C=C/c2ccccc2)cc1C(=O)O [DC12, (E)-2-amino-5-styrylbenzoic acid] | 104 | 117 | 116 | 95.6 | 116 | 96.5 | 107 | 101 |
| COc1ccc(/C=C/c2ccccc2)cc1C(=O)O [DC01, (E)-2-methoxy-5-styrylbenzoic acid] | 76.6 | 79.6 | 60.5 | 43.1 | 93.8 | 66.5 | 84.6 | 76.2 |
| COc1ccc(-c2ccc3ccccc3c2)cc1C(=O)O [DC05, 2-methoxy-5-(naphthalen-2-yl)benzoic acid] | 42.9 | 39.5 | 47.6 | 37.9 | 82.4 | 39 | 75.6 | 57.7 |
| CSc1ccc(/C=C/c2ccc(O)c(C(=O)O)c2)cc1 [DC08, (E)-2-hydroxy-5-(4-(methylthio)styryl)benzoic acid] | 51.1 | 8.4 | 25.9 | 3.7 | 21.1 | 6.6 | 28.8 | 9.3 |
